The values below come from patent publication US8389679B2, “Targeted antimicrobial moieties” (priority 2009, dated 2013).

Read-outs that look alike come from different tables or passages of the source. Where a SMILES comes first, the peptide text is derived from it. Where no end group is shown, it is not given here.

The test system of one test is S. mutans biofilms. Briefly: Binding of targeting peptides by fluorescent microscopy. As to conditions: 25 μM peptide, 5 min; data not shown. Also on record: species or system Streptococcus mutans. On the procedure:
Binding of Targeting Peptides. The binding of peptides 1—2, 1—3, 1—4, 1—6, 2—1, and 3—1 was assessed by fluorescent microscopy. S. mutans UA159 was grown overnight and diluted 1:5000 in fresh TH with 1% sucrose before seeding to 96-well plates (flat bottom). Biofilms were grown 24 h and the spent medium replaced with 1×PBS containing 25 μM peptide. After 5 min incubation at room temperature, the supernatants were removed and the biofilms washed 2× with 1×PBS and imaged by bright-field and fluorescence microscopy (Nikon E400). Digital images were collected and analyzed for semiquantitative binding assessments with the manufacturers supplied software (SPOT, Diagnostics) (6).

Test [1] deals with S. mutans. Nature of the test: Growth phenotype or other activity induced by peptide (Table 9). The class given is cell-based.
Test [2] has as its system E. coli. Briefly: Post-antibiotic effect assay (growth retardation in monoculture). The class given is cell-based, Escherichia coli. Particulars: peptide for 10 min, then fresh medium, FIG. 15E.
The subject of test [3] is P. aeruginosa. Nature of the test: Microbial population shift assay (mixed planktonic culture). The format is cell-based, Pseudomonas aeruginosa. As to conditions: 10 μM peptide, 24 h, FIG. 16. How it is done: (§1) FIG. 16 illustrates the selective activity of dual-targeted and single-targeted MH-STAMPs in mixed culture. […] After incubation, cfu/mL of remaining constituent species were quantitated after plating to selective media. * indicates under 200 surviving cfu/mL recovered.
(§2) Peptide (10 μM) or mock-treatment (1×PBS) was then added and samples were incubated at 37° C. for 24 h under anaerobic conditions (80% N2, 15% CO2, 5% H2). […] Plates were then incubated 37° C. under aerobic conditions (TH plates were incubated anaerobically) and colonies counted after 24 h to determine survivors. […] Gram stains and direct microscopic observation (from select isolated colonies) were undertaken to confirm species identity (data not shown). The detection limit of the assay was 200 cfu/mL.

Test [4] deals with P. aeruginosa. Briefly: Post-antibiotic effect assay (growth retardation in monoculture). As to conditions: peptide for 10 min, then fresh medium, FIG. 15B.
Method: (§3) Agent was then removed and fresh media returned. Culture recovery was measured over time (OD600). Plots represent the average of at least 3 independent experiments with standard deviations.
(§4) The activity and selectivity of MH-STAMPs after a 10 min incubation was determined by growth retardation experiments against targeted and untargeted bacteria in monocultures, as described previously [10, 11]. Cells from overnight cultures were diluted to ˜5×10^6 cfu/mL in MH (or TH with 1% sucrose for S. mutans), normalized by OD600 0.05-0.1 and seeded to 96-well plates. Cultures were then grown under the appropriate conditions for 2 h (3 h for S. mutans) prior to the addition of peptides for 10 min. Plates were then centrifuged at 3000×g for 5 min, the supernatants discarded, fresh medium returned (MH or TH without sucrose for S. mutans), and incubation resumed. Bacterial growth after treatment was then monitored over time by OD600.
Test [5] has as its system E. coli. Nature of the test: Microbial population shift assay (mixed planktonic culture). The class given is cell-based, Escherichia coli. As to conditions: 10 μM peptide, 24 h, FIG. 16. How it is done: as §1, §2
The test system of test [6] is S. mutans. Nature of the test: Post-antibiotic effect assay (growth retardation in monoculture). As to conditions: peptide for 10 min, then fresh medium, FIG. 15A.
Method: as §3, §4
The subject of test [7] is S. epidermidis. Described as above. As to conditions: peptide for 10 min, then fresh medium, FIG. 15C.
Method: as §3, §4
The next test has as its system S. aureus. Described as above. The format is cell-based, Staphylococcus aureus. Particulars: peptide for 10 min, then fresh medium, FIG. 15D.
Test [8] relates to S. epidermidis. Briefly: Microbial population shift assay (mixed planktonic culture). The class given is cell-based, Staphylococcus epidermidis. Particulars: 10 μM peptide, 24 h, FIG. 16. How it is done:
as §1, §2

The test system of test [9] is S. mutans. Described as above. The class given is cell-based, Streptococcus mutans. As to conditions: 10 μM peptide, 24 h, FIG. 16. How it is done: as §1, §2
Test [10] deals with S. mutans.
Another test has as its system bacteria. Nature of the test: Bacterial binding of blank peptide (data not shown).

With WWHSWWSTW [1_2], the “binding to S. mutans biofilms” value with S. mutans biofilms is “retain biofilm binding”.
Take EIPIQLANDLANYYDISLDSIFFW [G-4]: the “Organism, effect (S. mutans)” value with S. mutans [1] is “Biofilm structure”.
As to FIRKFLKKWLL-NH2 [BD2.20, FIRKFLKKWLL], the “E. coli growth after treatment (culture recovery, OD600)” value with E. coli [2] is recorded as “inhibited”. In addition, in the test with P. aeruginosa [3], the “recoverable P. aeruginosa cfu/mL in mixed culture (in words)” value is reported as “significant loss of recoverable cfu/mL”. Also, the “P. aeruginosa growth after treatment (culture recovery, OD600)” value in the test on P. aeruginosa [4] was “robust antimicrobial activity”. Further, the “recoverable E. coli cfu/mL in mixed culture (in words)” value with E. coli [5] is on record as “significant loss of recoverable cfu/mL”. Moreover, the “S. mutans growth after treatment (culture recovery, OD600)” value in the test with S. mutans [6] was “robust antimicrobial activity”. For the same molecule, the “S. epidermidis growth after treatment (culture recovery, OD600)” value in the test on S. epidermidis [7] was “inhibited”. In the test on S. aureus, the “S. aureus growth after treatment (culture recovery, OD600)” value was “inhibited”. Further, the “recoverable S. epidermidis cfu/mL in mixed culture (in words)” value in the test with S. epidermidis [8] is listed as “significant loss of recoverable cfu/mL”. For the same molecule, in the test with S. mutans [9], the “recoverable S. mutans cfu/mL in mixed culture (in words)” value is “significant loss of recoverable cfu/mL”.
Take `CC[C@H](C)[C@H](NC(=O)[C@H](Cc1ccccc1)NC(=O)CCCCCCCNC(=O)[C@H](CCCCNC(=O)CNC(=O)CNC(=O)CNC(=O)[C@H](Cc1c[nH]cn1)NC(=O)[C@H](CCCCN)NC(=O)[C@H](CCCNC(=N)N)NC(=O)[C@H](Cc1c[nH]cn1)NC(=O)[C@H](CCCCN)NC(=O)[C@H](CCCNC(=N)N)NC(=O)[C@H](Cc1c[nH]cn1)NC(=O)[C@H](CCCCN)NC(=O)[C@H](CCCNC(=N)N)NC(=O)[C@H](Cc1c[nH]cn1)NC(=O)[C@H](CCCCN)NC(=O)[C@@H](N)CCCCN)NC(=O)CNC(=O)CNC(=O)CNC(=O)[C@H](C)NC(=O)[C@H](CCC(=O)O)NC(=O)[C@H](CC(N)=O)NC(=O)[C@H](C)NC(=O)[C@H](C)NC(=O)[C@H](CC(=O)O)NC(C)=O)C(=O)N[C@@H](CCCNC(=N)N)C(=O)N[C@@H](CCCCN)C(=O)N[C@@H](Cc1ccccc1)C(=O)N[C@@H](CC(C)C)C(=O)N[C@@H](CCCCN)C(=O)N[C@@H](CCCCN)C(=O)N[C@@H](Cc1c[nH]c2ccccc12)C(=O)N[C@@H](CC(C)C)C(=O)N[C@@H](CC(C)C)C(N)=O` [BL(KH)-20] (HELM PEPTIDE1{[ac].D.A.A.N.E.A.G.G.G.K.[O=C(CCCCCCCN[*:1])[*:2]].F.I.R.K.F.L.K.K.W.L.L.[am]}|PEPTIDE2{K.K.H.R.K.H.R.K.H.R.K.H.G.G.G}$PEPTIDE1,PEPTIDE2,11:R3-15:R2$$$V2.0): the “recoverable P. aeruginosa cfu/mL in mixed culture (in words)” value in the test on P. aeruginosa [3] was “not observed”. Moreover, the “recoverable E. coli cfu/mL in mixed culture (in words)” value in the test on E. coli [5] was “unchanged numbers”. Moreover, the “S. mutans growth after treatment (culture recovery, OD600)” value with S. mutans [6] is reported as “not altered”. In addition, in the test with S. epidermidis [8], the “recoverable S. epidermidis cfu/mL in mixed culture (in words)” value is reported as “unchanged numbers”. The “recoverable S. mutans cfu/mL in mixed culture (in words)” value with S. mutans [9] was “higher than input cfu/mL”.
For the molecule WWQDWWNEW [1_6], the “binding to S. mutans biofilms” value in the test on S. mutans biofilms is “retain biofilm binding”.
On the same count and under the same terms, the value for LIKHILHRL [3_1] was “retain biofilm binding”; that for FIKHFIHRF [2_1] was “retain biofilm binding”.
For FHFHLHFGGGGGGFIKHFIHRF-NH2 [135(G6)2_1], the “S. mutans (MIC)” value with S. mutans [10] was 32 µg/mL.
Take FHFHLHFGSGSGFIKHFIHRF-NH2 [135(L12)2_1]: the “S. mutans (MIC)” value in the test with S. mutans [10] (Library 2 STAMPs, all S. mutans isolates tested, minimum of three independent trials) was determined as 32 µg/mL.
Turning to “FHFHLHF (not fully specified (C-terminus)) [PL-135]”, the “activity against S. mutans relative to progeny STAMPs” value with S. mutans [10] (FIG. 17 and Table 16) is listed as 2 to 4 fold.
For `CC[C@H](C)[C@H](NC(=O)[C@H](Cc1ccccc1)NC(=O)CCCCCCCNC(=O)[C@H](Cc1ccccc1)NC(=O)[C@H](Cc1c[nH]cn1)NC(=O)[C@H](CC(C)C)NC(=O)[C@H](Cc1c[nH]cn1)NC(=O)[C@H](Cc1ccccc1)NC(=O)[C@H](Cc1c[nH]cn1)NC(=O)[C@@H](N)Cc1ccccc1)C(=O)N[C@@H](CCCCN)C(=O)N[C@@H](Cc1c[nH]cn1)C(=O)N[C@@H](Cc1ccccc1)C(=O)N[C@H](C(=O)N[C@@H](Cc1c[nH]cn1)C(=O)N[C@@H](CCCNC(=N)N)C(=O)N[C@@H](Cc1ccccc1)C(N)=O)[C@@H](C)CC` [135(LC)2_1, FHFHLHF-[NH(CH2)7CO]-FIKHFIHRF] (HELM PEPTIDE1{F.H.F.H.L.H.F.[O=C(CCCCCCCN[*:1])[*:2]].F.I.K.H.F.I.H.R.F.[am]}$$$$V2.0; N-terminus assumed), the “S. mutans (MIC)” value in the test with S. mutans [10] was 64 µg/mL.
Same read-out and setting: the value for “FHFHLHFAGAFIKHFIHRF-NH2 [135(L13)2_1, FHFHLHFAGAFIKHFIHRF]” was 32 µg/mL.
For “FHFHLHFAAAFIKHFIHRF-NH2 [135(L2)2_1, FHFHLHFAAAFIKHFIHRF]”, in the test with S. mutans [10], the “S. mutans (MIC)” value was determined as 16 µg/mL.
Regarding “FHFHLHFGGGFIKHFIHRF-NH2 [135(L1)2_1, FHFHLHFGGGFIKHFIHRF]”, in the test with S. mutans [10], the “S. mutans (MIC)” value came out at 16 µg/mL and the “concentration active against S. mutans (MIC)” value is given as “lower than 100 μg/mL”.
Turning to FHFHLHFGGGGGFIKHFIHRF-NH2 [135(G5)2_1], in the test with S. mutans [10], the “S. mutans (MIC)” value amounted to 16 µg/mL.
As for “DAANEA-GGG (DAANEAGGG; synthetic BL-1 peptide with no bacterial binding)”, the bacterial binding entry in the test on bacteria was “no bacterial binding”.
Take WWKDWWERW [1_4]: the “binding to S. mutans biofilms” value in the test with S. mutans biofilms was “retain biofilm binding”.
Consider FHFHLHFGGGGFIKHFIHRF-NH2 [135(G4)2_1], for which the “S. mutans (MIC)” value in the test with S. mutans [10] came to 16 µg/mL.
Still for that read-out and setting: under “FRHIFHKIFGGGFHLHFHF-NH2 [2_1i(L1)135i, FRHIFHKIFGGGFHLHFHF]” stands 16 µg/mL.
WWSYWWTQW [1_3]: the “binding to S. mutans biofilms” value in the test on S. mutans biofilms is recorded as “retain biofilm binding”.
